Data: patent publication US4446133A, “1-Phenyl-4-carbamoyl piperazine compounds, process for preparation thereof and utilizations thereof” (Misuitoatsu Chemicals, Inc., priority 1980, dated 1984)
Structures can show the parent of a compound that is named as a salt.

Columns and labels:
[1] = test system: delayed hypersensitivity; assay: Test 1: Test of Reinforcement of Delayed Hypersensitivity (picryl chloride); type: in vivo, ICR male mice
Text: This system was used for the test of reinforcement of delayed hypersensitivity.
One group of eight ICR male mice, each having a body weight of about 30 g, were used for the test.
Sensitization was effected by coating a 7% solution of picryl chloride in a 4/1 mixture of olive oil and acetone on the shaved abdomen of the mouse.
Simultaneously with sensitization, a solution or suspension of the compound of the present invention in a 0.2% solution of carboxymethyl cellulose in a physiological saline was orally administered to the mouse at a dose of 50 mg per Kg of the body weight. To the control group, a 0.2% carboxymethyl cellulose solution in a physiological saline was similarly administered.
The delayed hypersensitivity was challenged 7 days after sensitization by gripping the ear of the mouse by a forceps wrapped with a felt impregnated with a 1% solution of picryl chloride in olive oil and coating the ear with the solution. The thickness of the ear was measured before challenging and 24 hours after challenging and the ratio of increase of the thickness (average value of both the ears in eight mice±standard deviation) was obtained as shown in Table 1.
For comparison, the test was similarly carried out by using Levamisole hydrochloride, and the obtained results are shown in Table 1. F.t tests were carried out. The group in which the test result was significant at a level of P<0.05 was marked by *, and the group in which the test result was significant at a level of P<0.01 was marked by **.

[2] = test system: Sarcoma 180; assay: Test 4: Test of Antitumor Effect to Sarcoma 180 by Oral Administration; type: in vivo, ICR female mice
Description: To the control group, a physiological saline solution was similarly administered. The dose of the compound was 100 mg per Kg of the body weight. The diameter D (mm) of the tumor was measured, and the average value and the number N of the living mice were determined to obtain results shown in Table 4.

[3] = test system: adjuvant arthritis; assay: Test 2: Adjuvant Arthritis Test; type: in vivo, SD male rats; settings: 5 mg/kg subcutaneous, 9 times, left hind leg, * P<0.05, ** P<0.01
[4] = test system: EL-4 leukemic cells; assay: Test 3: In-Vitro Test of Inhibition of Growth of Cancer Cell by Macrophage; type: cell-based; settings: for Inhibition of take-in of 3H-thymidine by EL-4 cells / activation of macrophage, in words: 8 mg/kg intraperitoneal; for Take-in Ratio of 3H-thymidine (average value): 8 mg/kg intraperitoneal to mice, macrophages collected after 4 days, mixed with EL-4 cells, control 80.2
Description: The results of the test of the action of the effective ingredient of the present invention on the macrophage will now be described with reference to the following Test 3. More specifically, the separated macrophage and EL-4 leukemic cell were mixed and cultured, and ^3 H-thymidine was added to a culture medium and the quantity of ^3 H-thymidine incorporated into the EL-4 cell was determined to examine the activity of the macrophage. When the macrophage is activated by administration of the effective ingredient of the present invention, inhibition of the growth of EL-4 cell, that is, phagocytosis of the cancer cell by the macrophage, is observed. Accordingly, if the take-in amount of ^3 H-thymidine is measured and this amount is reduced, it is confirmed that the macrophage has been activated. […] The dose was 8 mg per Kg of the body weight. To the control group, a physiological saline solution was similarly administered. After passage of 4 days, exuded abdominal cells were collected and deposited on a plastic Petri dish to collect macrophages. Then, 1×10^6 of so obtained macrophages and 1×10^5 of EL-4 leukemic cells of C57 BL/6J mouse were mixed and cultured in an RPMI 1640 culture medium to which 10% of bovine embryo serum was added (at 37° C. in the presence of 5% of CO2) for 24 hours. Then, 0.1μ Ci of ^3 H-thymidine was added and culturing was further conducted for 16 hours. Cells were collected on a filter paper from the culture medium and the amount of ^3 H-thymidine taken in was determined by a liquid scintillation counter. […] For comparison, the test was similarly carried out by using Levamisol hydrochloride.

[5] = test system: Sarcoma 180; assay: Test 5: Test of Antitumor Effect to Sarcoma 180 by Subcutaneous Administration; type: in vivo, ICR female mice; settings: 20 mg/kg subcutaneous
Description: To the control group, a physiological saline solution was similarly administered. […] The diameter D (mm) of the tumor was measured, and the average value and the number N of the living mice were determined to obtain results shown in Table 4.

[6] = 50 mg/kg oral, simultaneously with sensitization, 24 h after challenge, control 29.6 ± 1.9, * P<0.05, ** P<0.01

SMILES: c1ccc([C@H]2CN3CCSC3=N2)cc1 [Levamisole hydrochloride, reference compound]
- Ratio of Increase of Ear Thickness (average value ± standard variation) ([1]; mouse, in vivo): 35.6 ± 2.4%
- D: average diameter of tumor, 2 weeks ([2]; 100 mg/kg oral once a day, 10 days, 2 weeks, control 10.6): 10.2 mm
- D: average diameter of tumor, 4 weeks ([2]; 100 mg/kg oral once a day, 10 days, 4 weeks, control 15.2): 16.2 mm
- D: average diameter of tumor, 6 weeks ([2]; 100 mg/kg oral once a day, 10 days, 6 weeks, control 22.4): 20.7 mm
- D: average diameter of tumor, 8 weeks ([2]; 100 mg/kg oral once a day, 10 days, 8 weeks, control 31.5): 29.6 mm
- D: average diameter of tumor, 10 weeks ([2]; 100 mg/kg oral once a day, 10 days, 10 weeks, control 37.6): 28.1 mm
- Carcinostatic action on Sarcoma 180, in words ([2]; 100 mg/kg oral, repeated): no substantial carcinostatic action was observed
- N: number of living mice, 0 weeks ([2]; 100 mg/kg oral, of 6 mice, 0 weeks, control 6): 6
- N: number of living mice, 2 weeks ([2]; 100 mg/kg oral, of 6 mice, 2 weeks, control 6): 6
- N: number of living mice, 4 weeks ([2]; 100 mg/kg oral, of 6 mice, 4 weeks, control 6): 6
- N: number of living mice, 6 weeks ([2]; 100 mg/kg oral, of 6 mice, 6 weeks, control 6): 6
- N: number of living mice, 8 weeks ([2]; 100 mg/kg oral, of 6 mice, 8 weeks, control 5): 6
- N: number of living mice, 10 weeks ([2]; 100 mg/kg oral, of 6 mice, 10 weeks, control 1): 3
- Swelling Ratio (average value ± standard variation), 15 days ([3]; 15 days, control 84.4 ± 9.0): 65.2 ± 5.9%
- Swelling Ratio (average value ± standard variation), 18 days ([3]; 18 days, control 103.2 ± 9.7): 69.3 ± 7.1%
- Swelling Ratio (average value ± standard variation), 21 days ([3]; 21 days, control 107.5 ± 13.3): 80.7 ± 9.6%
- Inhibition of take-in of 3H-thymidine by EL-4 cells / activation of macrophage, in words [4]: does not exhibit such action
- Take-in Ratio of 3H-thymidine (average value) [4]: 49.0%
- Inhibition of take-in of 3H-thymidine by EL-4 cells / activation of macrophage, in words ([4]; listed as Levamisole): hardly exhibits such action
- Carcinostatic activity on Sarcoma 180, in words [5]: no substantial carcinostatic activity
- D: average diameter of tumor, 2 weeks ([5]; 2 weeks, control 10.8): 7.7 mm
- D: average diameter of tumor, 4 weeks ([5]; 4 weeks, control 16.6): 14.8 mm
- D: average diameter of tumor, 6 weeks ([5]; 6 weeks, control 20.3): 14.4 mm
- D: average diameter of tumor, 8 weeks ([5]; 8 weeks, control 31.3): 30.2 mm
- D: average diameter of tumor, 10 weeks ([5]; 10 weeks, control 40.5): 31.6 mm
- N: number of living mice, 0 weeks ([5]; of 6 mice, 0 weeks, control 6): 6
- N: number of living mice, 2 weeks ([5]; of 6 mice, 2 weeks, control 6): 6
- N: number of living mice, 4 weeks ([5]; of 6 mice, 4 weeks, control 6): 6
- N: number of living mice, 6 weeks ([5]; of 6 mice, 6 weeks, control 6): 6
- N: number of living mice, 8 weeks ([5]; of 6 mice, 8 weeks, control 4): 3
- N: number of living mice, 10 weeks ([5]; of 6 mice, 10 weeks, control 1): 2

SMILES: CCN(CC)C(=O)N1CCN(c2ccccc2)CC1 [drawing 11]
- Ratio of Increase of Ear Thickness (average value ± standard variation) [1, 6]: 44.0 ± 5.0%

SMILES: CCN(CC)C(=O)N1CCN(c2ccc(Cl)cc2)CC1 [drawing 12]
- Ratio of Increase of Ear Thickness (average value ± standard variation) [1, 6]: 42.3 ± 3.7%

SMILES: CCN(CC)C(=O)N1CCN(c2ccc(OC)cc2)CC1 [drawing 13]
- Ratio of Increase of Ear Thickness (average value ± standard variation) [1, 6]: 40.1 ± 4.2%

SMILES: CCOC(=O)c1ccc(N2CCN(C(=O)N(CC)CC)CC2)cc1 [drawing 14]
- Ratio of Increase of Ear Thickness (average value ± standard variation) [1, 6]: 39.1 ± 4.0%

SMILES: CCN(CC)C(=O)N1CCN(c2ccc(C(=O)O)cc2)CC1 [drawing 15]
- Ratio of Increase of Ear Thickness (average value ± standard variation) [1, 6]: 37.7 ± 3.0%

SMILES: CCN(CC)C(=O)N1CCN(c2ccc(C(C)=O)cc2)CC1 [drawing 16]
- Ratio of Increase of Ear Thickness (average value ± standard variation) [1, 6]: 38.8 ± 3.5%

SMILES: CCN(CC)C(=O)N1CCN(c2ccccc2)CC1 [drawing 23]
- Take-in Ratio of 3H-thymidine (average value) [4]: 24.4%

SMILES: CCN(CC)C(=O)N1CCN(c2ccc(Cl)cc2)CC1 [drawing 24]
- Take-in Ratio of 3H-thymidine (average value) [4]: 20.5%

SMILES: CCN(CC)C(=O)N1CCN(c2ccc(OC)cc2)CC1 [drawing 25]
- Take-in Ratio of 3H-thymidine (average value) [4]: 27.7%

SMILES: CCOC(=O)c1ccc(N2CCN(C(=O)N(CC)CC)CC2)cc1 [drawing 26]
- Take-in Ratio of 3H-thymidine (average value) [4]: 30.3%

SMILES: CCN(CC)C(=O)N1CCN(c2ccc(C(=O)O)cc2)CC1 [drawing 27]
- Take-in Ratio of 3H-thymidine (average value) [4]: 29.8%

SMILES: CCN(CC)C(=O)N1CCN(c2ccc(C(C)=O)cc2)CC1 [drawing 28]
- Take-in Ratio of 3H-thymidine (average value) [4]: 27.4%
